From publication PMC3933693, “Novel Inhibitors of Mitochondrial sn-Glycerol 3-phosphate Dehydrogenase” (PLoS ONE, 2014)
Values joined by “and” are separate entries in the source; they are usually repeats but may differ in a detail not shown here. Equal values may be shown once.

Experiments:
[1] = tested on: cortical synaptosomes; test: Synaptosomal respiration (Seahorse XF24); format: cell-based, mouse; settings: 100 µM iGP-1, 0.5 mM aminooxyacetate
Method: Synaptosomal respiration was tested in the Seahorse XF24 using published protocols, [41]. Synaptosomes (20 or 25 µg protein) were attached to polyethyleneimine and Geltrex-coated Seahorse plates by centrifugation in ionic medium, [41] containing 10 mM glucose. Attachment buffer was carefully replaced with ionic buffer containing DMSO, 100 µM iGP-1, 0.5 mM aminooxyacetate, or iGP-1 with aminooxyacetate, and either 10 mM pyruvate or 15 mM glucose. Plates were equilibrated for 20 min at 37°C then loaded into the instrument followed by measurement of basal respiration and injection of 5 µM FCCP (to induce maximal, uncoupled respiration) with 4 µg ⋅ mL^−1 oligomycin (to prevent compensatory reversal of ATP synthase). In some experiments, 10 mM oxamate was added with the FCCP/oligomycin to minimize regeneration of cytosolic NAD^+ by lactate dehydrogenase. Inhibition of the malate-aspartate shuttle was defined as the difference between maximal rates ± aminooxyacetate, expressed as % of control. Inhibition of the glycerol phosphate shuttle was the difference between maximal rates with aminooxyacetate ± iGP-1, as % of control.

[2] = tested on: skeletal muscle mitochondria; test: Mitochondrial membrane potential (ΔΨm, TMRM) powered by glycerol phosphate; format: biochemical, rat; settings: 16.7 mM glycerol phosphate
Method: Mitochondrial membrane potential (ΔΨm) was estimated fluorimetrically as described previously [33] on the Varian fluorimeter, except the potentiometric dye TMRM was used in quench-mode in place of safranine O [34]. […] The effect of putative small-molecule inhibitors was normalized as the % change in fluorescence between vehicle treatment and complete depolarization by the uncoupler carbonyl cyanide-4-(trifluoromethoxy)phenylhydrazone (FCCP, 2 µM) added at the end of each run. When indicated, the K^+/H^+ exchanger nigericin (80 ng ⋅ ml^−1) was added to collapse the pH gradient across the mitochondrial inner membrane (ΔpH) and maximize ΔΨm.
Additionally, four microplate assays for ΔΨm were run in parallel to the H2O2 assays. These assays were as described under “Measurement of mitochondrial H2O2 production and membrane potential” except that each substrate condition was assayed in a separate microplate. […] Plates were incubated in the dark at room temperature for 30–40 min (H2O2) or 10–15 min (ΔΨm) after the addition of substrate, and endpoint fluorescence was measured on the Victor plate reader. […] Endpoints for the ΔΨm assays were determined in pilot experiments as the times for TMRM accumulation to reach a steady state. At room temperature, this was typically ∼ 5 min and remained stable for at least 30 min. Endpoint fluorescence values were normalized as described in the previous section with wells containing FCCP serving as positive controls for the ΔΨm assays.

[3] = biological target: T1, flavin site of complex II (site IIF) (Rattus norvegicus, UniProt Q920L2); test: Site-specific H2O2 production from site IIF in skeletal muscle mitochondria; format: biochemical; settings: 0.5 mM succinate, rotenone, myxothiazol, antimycin A; Fig. 2B
T1 construct: from tissue; host or cells: skeletal muscle mitochondria
T1 sequence (Q920L2 35-656): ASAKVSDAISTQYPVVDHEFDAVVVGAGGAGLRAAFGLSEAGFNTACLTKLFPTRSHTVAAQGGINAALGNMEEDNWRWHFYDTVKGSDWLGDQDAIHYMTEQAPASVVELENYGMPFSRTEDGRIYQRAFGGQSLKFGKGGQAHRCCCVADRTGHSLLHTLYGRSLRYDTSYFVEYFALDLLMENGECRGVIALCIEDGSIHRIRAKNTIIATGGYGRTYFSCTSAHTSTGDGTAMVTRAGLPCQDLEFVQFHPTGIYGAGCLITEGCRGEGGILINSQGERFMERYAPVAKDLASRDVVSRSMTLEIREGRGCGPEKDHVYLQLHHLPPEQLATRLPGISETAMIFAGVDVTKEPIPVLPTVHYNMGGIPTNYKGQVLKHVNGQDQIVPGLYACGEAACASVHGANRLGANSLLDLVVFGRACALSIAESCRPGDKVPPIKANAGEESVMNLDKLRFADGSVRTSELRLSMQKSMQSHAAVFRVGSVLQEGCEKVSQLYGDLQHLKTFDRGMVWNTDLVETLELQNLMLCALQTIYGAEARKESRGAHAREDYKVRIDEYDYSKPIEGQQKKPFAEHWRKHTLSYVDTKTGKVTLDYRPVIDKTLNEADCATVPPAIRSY
T1 sequence (P21913 31-282 partner): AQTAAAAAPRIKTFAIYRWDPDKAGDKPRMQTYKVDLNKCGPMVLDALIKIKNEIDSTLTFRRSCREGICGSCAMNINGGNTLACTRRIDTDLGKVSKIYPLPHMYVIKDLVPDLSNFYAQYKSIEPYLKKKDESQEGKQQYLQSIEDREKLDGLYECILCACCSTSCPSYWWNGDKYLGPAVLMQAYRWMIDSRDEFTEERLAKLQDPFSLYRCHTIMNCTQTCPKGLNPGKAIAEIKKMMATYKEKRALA
T1 sequence (Q641Z9 30-169 partner limits assumed): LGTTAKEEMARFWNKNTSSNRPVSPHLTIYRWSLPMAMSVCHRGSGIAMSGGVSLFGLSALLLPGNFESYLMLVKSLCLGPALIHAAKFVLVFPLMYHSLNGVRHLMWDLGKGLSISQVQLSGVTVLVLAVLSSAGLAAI
T1 sequence (Q6PCT8 57-159 partner): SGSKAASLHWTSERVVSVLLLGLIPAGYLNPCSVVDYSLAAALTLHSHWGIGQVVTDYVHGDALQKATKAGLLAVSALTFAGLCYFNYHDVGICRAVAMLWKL
Outline: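 Isolated rat skeletal muscle mitochondria; H2O2 read by Amplex UltraRed with added SOD and HRP. Site IF/DH: 5 mM glutamate, 5 mM malate, 4 µM rotenone. Site IIF: palmitoylcarnitine or succinate with rotenone/antimycin A/myxothiazol. Site IIIQo: succinate, rotenone, antimycin A. Screen at 2.5 µM, normalised as % change from DMSO.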

[4] = tested on: skeletal muscle mitochondria; test: Mitochondrial membrane potential (ΔΨm, TMRM) powered by succinate; format: biochemical, rat; settings: 2.5 mM; 5 mM succinate, rotenone, nigericin
Method: Mitochondrial membrane potential (ΔΨm) was estimated fluorimetrically as described previously on the Varian fluorimeter, except the potentiometric dye TMRM was used in quench-mode in place of safranine O [34]. […] The effect of putative small-molecule inhibitors was normalized as the % change in fluorescence between vehicle treatment and complete depolarization by the uncoupler carbonyl cyanide-4-(trifluoromethoxy)phenylhydrazone (FCCP, 2 µM) added at the end of each run. When indicated, the K^+/H^+ exchanger nigericin (80 ng ⋅ ml^−1) was added to collapse the pH gradient across the mitochondrial inner membrane (ΔpH) and maximize ΔΨm.
The assay buffer for both H2O2 and ΔΨm measurements was 120 mM KCl, 5 mM HEPES, 1 mM EGTA, 0.3% (w/v) BSA without or with 250 nM free calcium at pH 7.0. All assays were performed with stirring at 37°C.
Structure/activity analysis was performed on 18 structural analogs of two structurally-related hits from the primary screen (iGP-1 and iGP-2). These 20 compounds were tested in duplicate at 0.08–80 µM (0.1% DMSO final) in microplate format for effects on site-specific H2O2 production as described above. Additionally, four microplate assays for ΔΨm were run in parallel to the H2O2 assays. These assays were as described under “Measurement of mitochondrial H2O2 production and membrane potential” except that each substrate condition was assayed in a separate microplate. […] Plates were incubated in the dark at room temperature for 30–40 min (H2O2) or 10–15 min (ΔΨm) after the addition of substrate, and endpoint fluorescence was measured on the Victor plate reader. Endpoints were chosen for the H2O2 assays to provide good signal-to-noise ratios and linear rates of change without the indicator dye limiting the reaction. Endpoints for the ΔΨm assays were determined in pilot experiments as the times for TMRM accumulation to reach a steady state. […] Endpoint fluorescence values were normalized as described in the previous section with wells containing FCCP serving as positive controls for the ΔΨm assays.

[5] = biological target: T2, mGPDH (Rattus norvegicus, UniProt P35571); test: Superoxide/H2O2 production by mGPDH in isolated skeletal muscle mitochondria (Amplex UltraRed); format: biochemical
T2 construct: Activity of mGPDH in frozen-thawed skeletal muscle mitochondria was measured; from tissue; host or cells: skeletal muscle mitochondria
T2 sequence (P35571 43-727): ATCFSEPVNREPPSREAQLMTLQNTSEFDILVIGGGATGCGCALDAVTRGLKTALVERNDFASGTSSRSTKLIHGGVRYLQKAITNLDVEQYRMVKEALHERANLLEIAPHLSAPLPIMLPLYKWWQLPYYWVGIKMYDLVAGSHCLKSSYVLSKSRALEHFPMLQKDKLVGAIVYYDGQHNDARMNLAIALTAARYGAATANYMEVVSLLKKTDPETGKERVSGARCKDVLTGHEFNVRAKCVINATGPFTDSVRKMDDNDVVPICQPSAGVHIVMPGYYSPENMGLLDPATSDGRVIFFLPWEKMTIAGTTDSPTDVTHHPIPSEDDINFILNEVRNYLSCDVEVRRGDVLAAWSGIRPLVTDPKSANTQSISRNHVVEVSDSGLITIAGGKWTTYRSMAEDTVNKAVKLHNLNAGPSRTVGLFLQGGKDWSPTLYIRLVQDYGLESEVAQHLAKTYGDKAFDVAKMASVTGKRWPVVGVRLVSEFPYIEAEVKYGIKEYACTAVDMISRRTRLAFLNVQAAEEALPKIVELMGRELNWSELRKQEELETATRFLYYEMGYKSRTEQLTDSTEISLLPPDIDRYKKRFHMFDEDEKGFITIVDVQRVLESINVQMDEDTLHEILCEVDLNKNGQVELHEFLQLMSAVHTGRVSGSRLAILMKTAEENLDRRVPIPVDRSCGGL

[6] = biological target: T2, mGPDH; test: mGPDH enzymatic activity (DCPIP-linked reduction by glycerol phosphate) in frozen-thawed skeletal muscle mitochondria; format: biochemical
Method: Activity of mGPDH in frozen-thawed skeletal muscle mitochondria was measured as 2,6-dichlorophenolindophenol (DCPIP)-linked reduction by glycerol phosphate as described previously in the presence of 1 µM free calcium. Linear rates of change in absorbance (λ = 600 nm) were measured on the PHERAstar microplate reader and converted to rates of DCPIP reduction using an extinction coefficient of 21 mM^−1 ⋅ cm^−1 and a calculated pathlength of 0.6 cm. Kinetic parameters and inhibitor constants were determined by co-varying glycerol phosphate and novel inhibitors according to recommended procedures and calculated for each data set using GraphPad Prism. Vmax and Km were determined using hyperbolic curves fit to the Michaelis-Menten equation: rate = (Vmax ⋅ [substrate]) ⋅ (K m+[substrate])^ −1. Hill Slope and IC50 were determined using unconstrained, sigmoidal dose-response curve fits of % remaining activity against concentration of iGP. K ic and K iu were determined using plots of rate^−1 vs iGP and GP ⋅ rate^−1 vs iGP, respectively. Linear regression analysis yielded an average x-coordinate at which the best-fit lines intersect. These x-coordinates correspond to -K ic and -K iu in their respective plots. The apparent Vmax of mGPDH is dependent upon the concentration of DCPIP used, [38]. Therefore, to determine the maximal activity of mGPDH in isolated synaptosomes, DCPIP was replaced by 1 mM potassium ferricyanide and linear rates of change in absorbance (λ = 420 nm) were converted to rates of ferricyanide reduction using an extinction coefficient of 1.04 mM^−1 ⋅ cm^−1 and a calculated pathlength of 0.6 cm.

[7] = tested on: skeletal muscle mitochondria; test: Mitochondrial respiration (Seahorse XF24) in plate-attached skeletal muscle mitochondria; format: biochemical, rat
Method: The effects of small-molecule inhibitors on respiration were tested in plate-attached skeletal muscle mitochondria using a Seahorse XF24 Analyzer according to published protocols. Briefly, mitochondria (2 or 4 µg protein) were attached to Seahorse assay plates by centrifugation in a mannitol and sucrose-based medium (Seahorse MAS buffer) containing 0.3% (w/v) BSA without or with 250 nM free calcium at pH 7.0. […] Compounds were added in these media just prior to loading the assay plate into the Seahorse instrument. Additions were made to set respiration in basal state 2 (substrate only), phosphorylating state 3 (5 mM ADP), non-phosphorylating state 4o (0.5 ug ⋅ mL^−1 oligomycin), and to reveal the non-mitochondrial rate (2 µM myxothiazol and 2.5 µM antimycin A). Each concentration of compound was tested in at least two wells on each plate. At least three biological replicates of each titration in each substrate condition were performed.

[8] = tested on: ubiquinone-binding site of complex I (site IQ); test: Site-specific H2O2 production from site IQ in skeletal muscle mitochondria; format: biochemical, rat; settings: 80 μM; 5 mM succinate;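 further: H2O2 from superoxide detected by Amplex UltraRed fluorescence with added superoxide dismutase and horseradish peroxidase, endpoint read 30–40 min after substrate addition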
[9] = tested on: skeletal muscle mitochondria; test: Mitochondrial membrane potential (ΔΨm, TMRM) powered by glutamate plus malate; format: biochemical, rat

NOCC(=O)O [aminooxyacetate, reference compound]
effect on basal or maximal respiration with pyruvate ([1]; 10 mM pyruvate): no effect
effect on basal and maximal respiration with glucose ([1]; 15 mM glucose, no oxamate): inhibited

O=CC(O)COP(=O)(O)O (stereo not shown) [glyceraldehyde 3-phosphate, reference compound]
effect on ΔΨm powered by glycerol phosphate ([2]; all concentrations tested, rotenone, atpenin A5, nigericin): significantly decreased
effect on the rate of H2O2 production from site IIF [3]: significantly inhibited
effect on ΔΨm powered by succinate [4]: significantly increased
inhibition at 2500 µM ([5]; 2.5 mM, 1.7 mM glycerol phosphate, 250 nM free calcium, read-out: inhibition of the rate of H2O2 production from mGPDH): ~80%

O=C(O)CCC(=O)Nc1ccc(-c2nc3cc4ccccc4cc3[nH]2)cc1 [iGP-5]
ΔΨm with GP + Nig (% change at 80 μM) ([2]; 80 μM, 4 µM rotenone, nigericin): -26%
effect on ΔΨm powered by glycerol phosphate ([2]; 2.5 and 25 µM): significantly decreased
mGPDH Activity Hill Slope ([6]; 1 µM free calcium): 0.85 and 0.85±0.07
IC50 ([6]; 1 µM free calcium, Fig. 9A): 1000 ± 200 nM
K iu (uncompetitive inhibitor dissociation constant) ([6]; co-varying glycerol phosphate and inhibitor): 1.1 ± 0.0 µM
Ki ([6]; co-varying glycerol phosphate and inhibitor, read-out: K ic (competitive inhibitor dissociation constant)): 700 nM
IC50 ([5]; Fig. 4 structure/activity microplate assay, 0.08–80 µM, estimated, means of two replicates, read-out: mGPDH H2O2 production IC50): 700 nM
IC50 ([5]; Fig. 9B, read-out: mGPDH H2O2 Production IC50): 1000 ± 100 nM
inhibition at 80 µM ([5]; read-out: mGPDH H2O2 production (% change at 80 μM)): 65%
IC50 ([5]; titration up to 80 µM (Fig. 6B, Fig. 7B), read-out: half-maximal effect on H2O2 production by mGPDH): ~1000 nM
effect on state 3 respiration with pyruvate and malate ([7]; 80 µM): significantly reduced
effect on glycerol phosphate-dependent state 3 respiration ([7]; 25 and 80 µM): significantly decreased
IQ H2O2 production with 5 mM Suc (% change at 80 μM) [8]: -9%
effect on ΔΨm powered by glutamate and malate ([9]; 25 µM, only in the absence of nigericin): significantly increased
ΔΨm with Glu + Mal + Nig (% change at 80 μM) ([9]; 80 μM, 5 mM glutamate, 5 mM malate, with nigericin): 20%
ΔΨm with Glu + Mal (% change at 80 μM) ([9]; 80 μM, 5 mM glutamate, 5 mM malate, without nigericin): 106%
